Measurements from patent publication US20210046143A1, “METHOD FOR TREATMENT OF THE HUMAN BODY BY THERAPY BY ADMINISTERING A COMPOSITION COMPRISING A PLANT EXTRACT OF THE SPECIE HEDYCHIUM CORONARIUM” (Societe D'exploitation De Produits Pour Les Industries …, priority 2016, published 2021).

What was measured:
[1] = tested on: murine B16 melanocytes (B16-F0 line); assay: Melanin titration in B16 melanocytes (melanogenesis); assay type: cell-based; details: Mus musculus, B16F0; kojic acid 1 mM; read-out: Inhibition of the melanin release in the culture medium
Description: • 1)—Background Information The aim of this study is to evaluate the effects of HCR extracts on melanogenesis in an in vitro model of murine B16 melanocytes. Cells used in this study were murine melanocytes (B16-F0 line, LGC standards, ATCC-CRL-6322) extracted from murine skin. This cells lines synthesizes a great quantity of melanin which is released in the culture media (so called supernatants), so a titration by spectrophotometry is easy to achieve. These melanocytes were cultured as monolayers; the test compounds were applied during seventy two hours and the synthesized melanin was then released and measured out in the supernatants. A XTT assay was previously performed, to check the cells viability, in order to determine the concentrations to be tested, as described in Example 2. • 2)—Dose Determination (CytotoxicityNiability Check by XTT Assay) and Evaluated Test Compound
B16 melanocytes were seeded in 24-wells plates. […]
Cells were seeded into 24-wells plates (at a cell density of […], i.e. 31,250 B16/cm^2), in the same medium as previously described, one day before treatment (incubation at 37° C./5% CO2). […] After 48 or 72 hours of treatment, the supernatants were homogenized and aliquots were transferred to 96-well plates for spectrophotometry reading at 492 nm wavelength (reading in duplicate). […]

IL-8 = IL-8 release by human skin explants, pollution model (BaP), ELISA; assay type: cell-based; details: PMA 1 μg/ml systemic, 24 h, without pollution
Description: b)—The product was systemically applied for 24 hours, on human skin explants (diameter of 8 mm), provided by Biopredic™ International (Rennes), which derived from mammary plastic surgery (person);
c)—The product was then applied again during pollution, for another 24 hours. Said pollution was induced in this model by application of an environmental pollutant, benzo(a)pyrene (3,4-benzopyrene/BaP) as systemic treatment, i.e. in the culture medium. This pollutant induces IL-8 release (SEPhRA results).
a)—A 2% (DE) HCR extract is diluted in the culture medium to obtain a 0.1% (DE) HCR extract, which is used as the test compound.
b)—Said HCR extract was systemically applied on the skin explants as a twenty-four hours pre-treatment. […]
e)—In order to validate the IL-8 titration, an additional condition was evaluated, i.e. stimulation with a reference pro-inflammatory molecule PMA (Phorbol 12-myristate 13-acetate, Sigma P8139), at 1 μg/ml. […]
d)—The inflammatory cytokine IL-8 was then measured out with a commercial kit from Bio-Techne/R&Dsystems (D8000C), which is an ELISA method. […] Titration raw data were obtained by measuring the absorbance or the optical density (OD) at 450 nm wavelength, with 570 nm as a reference.
e)—The concentrations of IL-8 measured in the samples were determined by using a concentration range of an IL-8 standard. […]

Row | Compound | inhibition at 1000 µM [1] [%] | IL-8 release, change compared to untreated/unpolluted control (IL-8)
1 | O=c1cc(CO)occ1O [kojic acid] | > 90 | 
2 | CCCCCCCCCCCCCC(=O)O[C@@H]1[C@@H](C)[C@@]2(O)[C@@H](C=C(CO)C[C@]3(O)C(=O)C(C)=C[C@@H]23)[C@@H]2C(C)(C)[C@]12OC(C)=O [PMA, Phorbol 12-myristate 13-acetate] |  | +224%
